In paper PMC9229949 (Pharmaceutics, 2022):
Like-named read-outs stand apart in the source and are kept apart here.

Tests used:
[1] = system: β-hematin formation from Fe(II)PPIX (heme); experiment: β-hematin inhibition activity, reducing conditions (R-BHIA, heme); format: biochemical; conditions: 18 h incubation; median ± S.E.M. of three experiments; free bases; read-out: β-Hematin Inhibitory Activity (BHIA) R-BHIA (Heme), IC50
Procedure: (§1) A hemin chloride (10 μL of 4 mM stock in 80% DMSO) aliquot was dispensed in a U bottom 96-well microplate, and then, 10 μL of 0.1 M NaOH (O-BHIA) or 4 mM reduced glutathione in PBS at pH 7.0 (R-BHIA) was added, and plates were sealed and incubated at 37 °C for 2 h. After this, 10 μL of the drug dissolved in DMSO was added and incubated for 2 h, followed by the addition of 180 μL of sodium acetate buffer (1.0 M, pH 5.2) and 10 μL of nonionic detergent IGEPAL-CA-630 solution in methanol (10 mg/mL). Plates were sealed and incubated at 37 °C for 18 h. […] The reaction was stopped by the addition of 50 μL of a sodium dodecyl sulfate solution (5.0% v/v in 0.1 M bicarbonate buffer at pH 9.0). Plates were centrifuged at 3700 rpm for 5 min, and 100 μL of supernatant was placed in a separate plate. […] Two independent experiments were performed, and each drug concentration was tested in quadruplicate concentrations.

[2] = system: β-hematin formation from Fe(III)PPIX (hematin); experiment: β-hematin inhibition activity, oxidizing conditions (O-BHIA, hematin); format: biochemical; conditions: 18 h incubation; median ± S.E.M. of three experiments; free bases; read-out: β-Hematin Inhibitory Activity (BHIA) O-BHIA (Hematin), IC50
Procedure: as §1

[3] = Interaction with reduced glutathione (GSH) by monochlorobimane fluorescence assay; conditions: 2 h incubation, 10 to 0.3 drug:GSH molar ratio
Procedure: Ten microliters per well of a solution of 2.0 mM reduced glutathione (Sigma-Aldrich, St. Louis, MO, USA, dissolved in PBS pH 7.2) was distributed in a 96-well microplate containing 170 μL/well of DMSO/PBS (1:1; v/v). Stock solutions of compounds were diluted in DMSO, and 10 μL was added in quadruplicate in the respective wells to a final concentration of 0.015 to 0.5 mM. […] After 1 h incubation at room temperature, fluorescence was recorded (λex = 360 nm, λem = 440 nm). Blank subtraction was performed prior to monochlorobimane addition, and controls included untreated wells (no drug) and no GSH. The results were expressed as a percentage of inhibition of GSH binding to monochlorobimane in comparison to control without compound. At least two independent experiments were performed.

[4] = system: P. falciparum W2 (CQ-resistant) asexual blood stages; experiment: In vitro activity against asexual blood stages of P. falciparum, CQ-resistant strain W2 (HRP2 ELISA); format: cell-based; conditions: Plasmodium falciparum, read-out: P. falciparum, IC50 ± S.E.M., CQ-Resistant W2
Procedure: (§2) The plates were incubated for 72 h at 37 °C in controlled atmosphere. After frozen and thawing the plates, hemolyzed cultures were homogenized by vortexing the plates. The antiparasitic activity was determined using the HRP2 ELISA-based assay Malaria Ag Celisa kit (ref KM2159, Cellabs PTY LDT, Brookvale, Australia). […] IC50s are expressed as means of three to five experiments.

[5] = system: P. falciparum 3D7 (CQ-susceptible) asexual blood stages; experiment: In vitro activity against asexual blood stages of P. falciparum, CQ-susceptible strain 3D7 (HRP2 ELISA); format: cell-based; conditions: Plasmodium falciparum, read-out: P. falciparum, IC50 ± S.E.M., CQ-Susceptible 3D7
Procedure: as §2

β-hematin formation = β-hematin formation inhibition by infrared spectroscopy; format: biochemical; set-up: key: Yes indicates β-hematin inhibition; No indicates β-hematin formation; conditions: 3:1 ratio of drug:hematin, qualitative by infrared
Procedure: The conversion of hemin to β-hematin was determined by infrared (IR) spectroscopy as described by Egan et al.. […] Then, 0.3 mL of 0.1 M HCl and 1.7 mL of sodium acetate buffer ([…], pH 5) were added at the same temperature. […] The solid was dried and IR spectra were obtained using attenuated total reflection (ATR) using chloroquine as a positive control.

[6] = system: 3D7 P. falciparum gametocytes stages I/III; experiment: P. falciparum young gametocytes (stages I/III), luciferase viability; format: cell-based; conditions: Plasmodium falciparum, read-out: IC50, gametocytes of P. falciparum, Stages I/III
Procedure: (§3) The activity of compounds was assessed against young gametocytes (stages I/III) and against mature gametocytes (stage V). […] A volume of 100 μL of 3D7elo1-pfs16-CBG99 gametocytes of 3D7 P. falciparum at 0.5–1% parasitemia and 2% hematocrit were dispensed. […] Luciferase activity was used to determine gametocytes viability. A volume of 100 µL of culture medium was removed from each well to increase hematocrit; 70 µL of resuspended culture was transferred to a black 96-well plate; 70 µL of D-luciferin (1 mM in citrate buffer 0.1 M, pH 5.5) was added. Luminescence measurements were performed after 10 min with 500 ms integration time. The IC50 was extrapolated from nonlinear regression analysis of the concentration–response curve.

[7] = system: 3D7 P. falciparum gametocytes stage V; experiment: P. falciparum mature gametocytes (stage V), luciferase viability; format: cell-based; conditions: Plasmodium falciparum, 3D7, 72 h, read-out: IC50, gametocytes of P. falciparum, Stage V
Procedure: as §3

[8] = system: P. berghei sporozoites in Huh-7 cells; experiment: P. berghei hepatic stages: infection of Huh-7 cells by luciferase-expressing sporozoites; format: cell-based; conditions: Plasmodium berghei, Huh-7, 48 h, read-out: Sporozoites (Inhibition of Infection, %)
Procedure: Huh-7 cells at 1.0 × 10^4 per well were seeded in 96-well plates the day before drug treatment and infection. The culture medium was replaced by infection medium (culture medium supplemented with gentamicin (50 μg/mL) and amphotericin B (0.8 μg/mL)) containing the appropriate concentration of each compound for approximately 1 h prior to infection with sporozoites of firefly luciferase-expressing P. berghei, freshly obtained through the disruption of salivary glands of infected female Anopheles stephensi mosquitoes. An amount of the DMSO solvent equivalent to that present in the highest compound concentration was used as negative control. Sporozoite addition was followed by centrifugation at 1800× g for 5 min. and parasite infection load was measured 48 h after infection by using a bioluminescence assay (Biotium, Hayward, CA, USA). The effect of the compounds on the viability of Huh-7 cells was assessed by performing the AlamarBlue (Invitrogen, Waltham, MA, USA) assay according to the manufacturer’s protocol.

[9] = Cytotoxicity against J774 cells (CellTiter-Glo); format: cell-based, murine; conditions: mouse, J774 macrophage cells; reference drug, J774; read-out: CC50 for J774
Procedure: (§4) In vitro cytotoxicity was assayed against two mammalian cell lineages, J774 (murine macrophages) and HepG2 (human hepatocellular carcinoma). […] Cell cultures from 60 to 80% confluence were trypsinized, washed in complete medium, and 4 × 10^4 cells were plated in 100 µL per well with complete medium in 96-well flat-bottom white plates for 24 h at 37 °C prior to the addition of the compounds. Triplicate aliquots of compound and the reference drugs (stock solution in DMSO) covering 7 different concentrations at 2-fold dilutions were added to the wells, and plates were incubated for 72 h more. After incubation for 72 h at 37 °C, plates were maintained at room temperature, the culture medium was removed, and 100 µL volume of CellTiter-Glo reagent was added to each well. The bioluminescence was measured using a microplate reader Filtermax F5 Multi-Mode instrument (Molecular Devices) and Softmax software. […] The selectivity index (S.I.) was estimated using the IC50s from mammalian cells divided by the IC50 obtained against the asexual blood stage P. falciparum.

[10] = Cytotoxicity against uninfected HepG2 cells (CellTiter-Glo); format: cell-based; conditions: human, reference drug
Procedure: as §4

Row | SMILES | IC50 [1] | IC50 [2] | interaction with GSH [3] | β-Hematin Inhibitory Activity (BHIA) Determined by IR (β-hematin formation) | further results
1 | C[C@@H]1CC[C@H]2[C@@H](C)C(=O)O[C@@H]3O[C@@]4(C)CC[C@@H]1[C@]32OO4 [Artemisinin (ARS), artemisinin] | 60 ± 10 µM | > 1000 µM | – | – | –
2 | CCN(CC)CCCC(C)Nc1ccnc2cc(Cl)ccc12 (centres unmarked) [Chloroquine (CQ), chloroquine] | 130 ± 30 µM | 230 ± 40 µM | neither CQ nor phenanthroline interacted with GSH | Yes | IC50 ([4]; W2, 72 h): 459 ± 21 nM; IC50 ([5]; 3D7, 72 h): 18 ± 2 nM
3 | C[C@H]1[C@@H](O)O[C@@H]2O[C@@]3(C)CC[C@H]4[C@H](C)CC[C@@H]1[C@@]24OO3 [DHA, dihydroartemisinin] | – | – | – | – | IC50 ([6]; 3D7 strain, 72 h, mean ± S.D. of one experiment): 0.0123 ± 0.0054 µM
4 | COc1cc(NC(C)CCCN)c2ncccc2c1 (centres unmarked) [Primaquine (PQ), primaquine] | > 1000 µM | > 1000 µM | – | No | IC50 ([4]; W2, 72 h incubation, HRP2 ELISA, mean ± S.E.M. of at least three experiments, AQ hydrochloride hydrate, PQ diphosphate, CQ diphosphate): 182 ± 16 nM; IC50 ([5]; 3D7, 72 h incubation, HRP2 ELISA, mean ± S.E.M. of at least three experiments, AQ hydrochloride hydrate, PQ diphosphate, CQ diphosphate): 1120 ± 53 nM; IC50 ([6]; 3D7, 72 h): 13.7 ± 7.6 µM; IC50 [7]: 43.2 ± 10.6 µM; inhibition at 10 µM [8]: 52%
5 | COc1cccc2c1C(=O)c1c(O)c3c(c(O)c1C2=O)C[C@@](O)(C(=O)CO)C[C@@H]3O[C@H]1C[C@H](N)[C@H](O)[C@H](C)O1 [doxorubicin] | – | – | – | – | CC50 at 72 h [9]: 440 ± 310 nM; CC50 at 72 h [10]: < 120 nM
6 | c1cnc2c(c1)ccc1cccnc12 [phenanthroline] | – | – | neither CQ nor phenanthroline interacted with GSH | – | –
